Where “and” joins values, the source holds several entries; their conditions need not be identical. Equal entries are not always repeated. Inconclusive results and toxic doses are left out.
Tested on: BDF1 mice, P1081 chloroleukemia ip, survival T/C
Assay: NCI In Vivo Anticancer Drug Screen. Data for tumor model P1081 Chloroleukemia (intraperitoneal) in B6D2F1 (BDF1) mice
Conditions: endpoint: mean survival time, higher = longer survival
Description: The antitumor activity of compounds was measured in mice bearing transplantable tumors. Survival or tumor size were measured and the results are expressed as the measurement made in the treated group (T) divided by the measurement made in the vehicle treated control group (C). The tumor model used in this assay is P1081 Chloroleukemia (intraperitoneal) in B6D2F1 (BDF1) mice

[1] = dose: 3.13 mg/kg/injection, schedule: Q01DX010 (ip), vehicle: saline
[2] = dose: 6.25 mg/kg/injection, schedule: Q01DX010 (ip), vehicle: saline
[3] = dose: 25.0 mg/kg/injection, schedule: Q01DX010 (ip), vehicle: saline
[4] = dose: 62.5 mg/kg/injection, schedule: Q01DX010 (ip), vehicle: saline
[5] = dose: 125.0 mg/kg/injection, schedule: Q01DX010 (ip), vehicle: saline
[6] = dose: 250.0 mg/kg/injection, schedule: Q01DX010 (ip), vehicle: saline
[7] = dose: 500.0 mg/kg/injection, schedule: Q01DX010 (ip), vehicle: saline
[8] = dose: 12.5 mg/kg/injection, schedule: Q01DX010 (ip), vehicle: saline
[9] = dose: 4.0 mg/kg/injection, schedule: Q01DX Z (ip), vehicle: carboxymethylcellulose (CMC)
[10] = dose: 8.0 mg/kg/injection, schedule: Q01DX Z (ip), vehicle: carboxymethylcellulose (CMC)

## CCCNc1ncnc2[nH]ncc12
[1]
  T/C: 100 % of control
dose: 5.0 mg/kg/injection, schedule: Q01DX Z (ip), vehicle: water
  T/C: 90 % of control
[2]
  T/C: 100 % of control
dose: 10.0 mg/kg/injection, schedule: Q01DX Z (ip), vehicle: water
  T/C: 93 % of control
dose: 20.0 mg/kg/injection, schedule: Q01DX Z (ip), vehicle: water
  T/C: 102 % of control
[3]
  T/C: 90 % of control

## CC(=O)N(C)C
[4]
  T/C: 100 % of control
[5]
  T/C: 90 % of control and 95 % of control
[6]
  T/C: 90 % of control and 95 % of control
[7]
  T/C: 90 % of control and 95 % of control

## CC1CCOS(=O)O1 (stereo not given)
dose: 2.5 mg/kg/injection, schedule: Q01DX Z (ip), vehicle: carboxymethylcellulose (CMC)
  T/C: 101 % of control
dose: 5.0 mg/kg/injection, schedule: Q01DX Z (ip), vehicle: carboxymethylcellulose (CMC)
  T/C: 115 % of control
dose: 10.0 mg/kg/injection, schedule: Q01DX010 (ip), vehicle: saline
  T/C: 115 % of control
dose: 10.0 mg/kg/injection, schedule: Q01DX Z (ip), vehicle: carboxymethylcellulose (CMC)
  T/C: 86 % of control
dose: 20.0 mg/kg/injection, schedule: Q01DX010 (ip), vehicle: saline
  T/C: 110 % of control
dose: 40.0 mg/kg/injection, schedule: Q01DX010 (ip), vehicle: saline
  T/C: 95 % of control

## N=[N+]=CC(=O)OCC(N)C(=O)O (stereo not given)
dose: 0.94 mg/kg/injection, schedule: Q01DX Z (ip), vehicle: saline
  T/C: 113 % of control
dose: 1.25 mg/kg/injection, schedule: Q01DX Z (ip), vehicle: saline
  T/C: 118 % of control and 122 % of control
dose: 2.5 mg/kg/injection, schedule: Q01DX Z (ip), vehicle: saline
  T/C: 107 % of control and 117 % of control
dose: 3.75 mg/kg/injection, schedule: Q01DX Z (ip), vehicle: saline
  T/C: 160 % of control
[8]
  T/C: 175 % of control
[3]
  T/C: 90 % of control and 95 % of control

## CS(=O)(=O)OCCCCOS(C)(=O)=O
dose: 0.78 mg/kg/injection, schedule: Q01DX Z (ip), vehicle: methylcellulose (MC)
  T/C: 89 % of control
[2]
  T/C: 110 % of control
[8]
  T/C: 86 % of control and 100 % of control
[3]
  T/C: 86 % of control and 100 % of control
dose: 25.0 mg/kg/injection, schedule: Q01DX Z (ip), vehicle: methylcellulose (MC)
  T/C: 95 % of control
dose: 50.0 mg/kg/injection, schedule: Q01DX010 (ip), vehicle: saline
  T/C: 90 % of control and 100 % of control
dose: 50.0 mg/kg/injection, schedule: Q01DX Z (ip), vehicle: methylcellulose (MC)
  T/C: 92 % of control

## C1CN1c1nc(N2CC2)nc(N2CC2)n1
dose: 0.03 mg/kg/injection, schedule: Q01DX Z (ip), vehicle: saline
  T/C: 92 % of control
dose: 0.06 mg/kg/injection, schedule: Q01DX Z (ip), vehicle: saline
  T/C: 107 % of control
dose: 0.13 mg/kg/injection, schedule: Q01DX010 (ip), vehicle: saline
  T/C: 95 % of control and 100 % of control
dose: 0.25 mg/kg/injection, schedule: Q01DX010 (ip), vehicle: saline
  T/C: 94 % of control
dose: 0.25 mg/kg/injection, schedule: Q01DX Z (ip), vehicle: saline
  T/C: 122 % of control and 102 % of control
dose: 0.5 mg/kg/injection, schedule: Q01DX010 (ip), vehicle: saline
  T/C: 109 % of control
dose: 0.5 mg/kg/injection, schedule: Q01DX Z (ip), vehicle: saline
  T/C: 121 % of control and 90 % of control
dose: 1.0 mg/kg/injection, schedule: Q01DX010 (ip), vehicle: saline
  T/C: 88 % of control
dose: 1.0 mg/kg/injection, schedule: Q01DX Z (ip), vehicle: saline
  T/C: 102 % of control
dose: 24.0 micrograms/kg/injection, schedule: Q01DX Z (ip), vehicle: saline
  T/C: 89 % of control
dose: 48.0 micrograms/kg/injection, schedule: Q01DX Z (ip), vehicle: saline
  T/C: 96 % of control
dose: 95.0 micrograms/kg/injection, schedule: Q01DX Z (ip), vehicle: saline
  T/C: 98 % of control
dose: 190.0 micrograms/kg/injection, schedule: Q01DX Z (ip), vehicle: saline
  T/C: 89 % of control

## CN(Cc1cnc2nc(N)nc(N)c2n1)c1ccc(C(=O)N[C@@H](CCC(=O)O)C(=O)O)cc1
dose: 0.03 mg/kg/injection, schedule: Q01DX Z (ip), vehicle: other
  T/C: 160 % of control
dose: 0.06 mg/kg/injection, schedule: Q01DX Z (ip), vehicle: other
  T/C: 115 % of control
dose: 0.07 mg/kg/injection, schedule: Q01DX Z (ip), vehicle: other
  T/C: 113 % of control
dose: 0.15 mg/kg/injection, schedule: Q01DX Z (ip), vehicle: other
  T/C: 117 % of control and 122 % of control
dose: 0.19 mg/kg/injection, schedule: Q01DX010 (ip), vehicle: other
  T/C: 110 % of control and 120 % of control and 121 % of control
dose: 0.24 mg/kg/injection, schedule: Q01DX Z (ip), vehicle: other
  T/C: 189 % of control
dose: 0.31 mg/kg/injection, schedule: Q01DX Z (ip), vehicle: other
  T/C: 111 % of control and 117 % of control
dose: 0.38 mg/kg/injection, schedule: Q01DX010 (ip), vehicle: other
  T/C: 123 % of control
dose: 0.47 mg/kg/injection, schedule: Q01DX Z (ip), vehicle: other
  T/C: 226 % of control
dose: 0.62 mg/kg/injection, schedule: Q01DX Z (ip), vehicle: other
  T/C: 110 % of control and 113 % of control
dose: 0.75 mg/kg/injection, schedule: Q01DX010 (ip), vehicle: other
  T/C: 150 % of control and 160 % of control and 170 % of control
dose: 0.94 mg/kg/injection, schedule: Q01DX Z (ip), vehicle: other
  T/C: 92 % of control
dose: 1.5 mg/kg/injection, schedule: Q01DX010 (ip), vehicle: other
  T/C: 187 % of control and 207 % of control and 210 % of control
dose: 1.88 mg/kg/injection, schedule: Q01DX Z (ip), vehicle: other
  T/C: 98 % of control
dose: 3.0 mg/kg/injection, schedule: Q01DX010 (ip), vehicle: other
  T/C: 106 % of control and 108 % of control and 105 % of control

## NC(=O)N(CCCl)N=O
dose: 1.0 mg/kg/injection, schedule: Q01DX Z (ip), vehicle: carboxymethylcellulose (CMC)
  T/C: 97 % of control
[9]
  T/C: 95 % of control
[10]
  T/C: 106 % of control
dose: 16.0 mg/kg/injection, schedule: Q01DX Z (ip), vehicle: carboxymethylcellulose (CMC)
  T/C: 108 % of control

## O=c1cn[nH]c(=O)[nH]1
[9]
  T/C: 102 % of control
[10]
  T/C: 93 % of control
[4]
  T/C: 95 % of control
[5]
  T/C: 95 % of control
dose: 125.0 mg/kg/injection, schedule: Q01DX Z (ip), vehicle: carboxymethylcellulose (CMC)
  T/C: 123 % of control and 94 % of control
[6]
  T/C: 90 % of control and 95 % of control
dose: 250.0 mg/kg/injection, schedule: Q01DX Z (ip), vehicle: carboxymethylcellulose (CMC)
  T/C: 117 % of control
[7]
  T/C: 110 % of control and 100 % of control
dose: 500.0 mg/kg/injection, schedule: Q01DX Z (ip), vehicle: carboxymethylcellulose (CMC)
  T/C: 117 % of control
dose: 1000.0 mg/kg/injection, schedule: Q01DX Z (ip), vehicle: carboxymethylcellulose (CMC)
  T/C: 97 % of control

## O=C(O)CCCc1ccc(N(CCCl)CCCl)cc1
dose: 0.8 mg/kg/injection, schedule: Q01DX Z (ip), vehicle: carboxymethylcellulose (CMC)
  T/C: 90 % of control
dose: 1.6 mg/kg/injection, schedule: Q01DX Z (ip), vehicle: carboxymethylcellulose (CMC)
  T/C: 92 % of control
dose: 3.1 mg/kg/injection, schedule: Q01DX Z (ip), vehicle: carboxymethylcellulose (CMC)
  T/C: 102 % of control
[1]
  T/C: 105 % of control and 120 % of control
dose: 6.2 mg/kg/injection, schedule: Q01DX Z (ip), vehicle: carboxymethylcellulose (CMC)
  T/C: 113 % of control
[2]
  T/C: 105 % of control and 115 % of control
dose: 6.25 mg/kg/injection, schedule: Q01DX Z (ip), vehicle: carboxymethylcellulose (CMC)
  T/C: 86 % of control
dose: 12.5 mg/kg/injection, schedule: Q01DX Z (ip), vehicle: carboxymethylcellulose (CMC)
  T/C: 107 % of control
dose: 25.0 mg/kg/injection, schedule: Q01DX Z (ip), vehicle: carboxymethylcellulose (CMC)
  T/C: 114 % of control
dose: 50.0 mg/kg/injection, schedule: Q01DX Z (ip), vehicle: carboxymethylcellulose (CMC)
  T/C: 102 % of control

## O[C@H](CN1CC1)[C@@H](O)CN1CC1
dose: 0.12 mg/kg/injection, schedule: Q01DX Z (ip), vehicle: carboxymethylcellulose (CMC)
  T/C: 193 % of control
dose: 0.25 mg/kg/injection, schedule: Q01DX Z (ip), vehicle: carboxymethylcellulose (CMC)
  T/C: 204 % of control
dose: 0.5 mg/kg/injection, schedule: Q01DX Z (ip), vehicle: carboxymethylcellulose (CMC)
  T/C: 117 % of control
dose: 16.0 micrograms/kg/injection, schedule: Q01DX Z (ip), vehicle: carboxymethylcellulose (CMC)
  T/C: 100 % of control
dose: 62.5 micrograms/kg/injection, schedule: Q01DX010 (ip), vehicle: saline
  T/C: 316 % of control
dose: 125.0 micrograms/kg/injection, schedule: Q01DX010 (ip), vehicle: saline
  T/C: 210 % of control and 261 % of control
dose: 125.0 micrograms/kg/injection, schedule: Q01DX Z (ip), vehicle: carboxymethylcellulose (CMC)
  T/C: 157 % of control
dose: 250.0 micrograms/kg/injection, schedule: Q01DX010 (ip), vehicle: saline
  T/C: 288 % of control
dose: 500.0 micrograms/kg/injection, schedule: Q01DX010 (ip), vehicle: saline
  T/C: 150 % of control and 177 % of control

From PubChem BioAssay AID246 (DTP/NCI, 2004)
